The source of these data is ChEMBL document CHEMBL3392969, “SAR156497, an exquisitely selective inhibitor of aurora kinases” (J Med Chem, 2015).

Each structure is given as a SMILES string.

In series [1] the test system is HeLa. Kind of series: cells. The following applies: Homo sapiens.
Description: Antiproliferative activity against human HeLa cells assessed as 14C-thymidine incorporation by Micro-Beta radioactivity counting analysis
Series [2] concerns the target Aurora kinase B (Homo sapiens, UniProt Q96GD4).
Description: Inhibition of poly-histidine tagged full length recombinant aurora B (unknown origin) assessed as phosphorylation of NuMA-histidine substrate by scintillation counting analysis
The nature of series [3]: Antitumor activity against human HCT116 cells xenografted in SCID mouse assessed as tumor growth at 25 mg/kg, sc after 24 hrs infusion schedule. The following applies: route subcutaneous. (In xenograft studies the graft and the host belong to different species.)
Series [4] in a line: Plasma concentration in human HCT116 cells xenografted in SCID mouse at 50 mg/kg/day, sc infusion after 8 hrs.
Series [5] is described as follows: Antitumor activity against human HCT116 cells xenografted in SCID mouse assessed as decrease in […] positive cells at 25 mg/kg, sc after 24 hrs infusion schedule. The following applies: HCT-116, sc.
A short description of series [6]: in vitro. The following applies: mouse, liver microsomes. Background: Microsomes from liver hold many membrane-bound enzymes, among them those of drug oxidation.
Description: Metabolic stability mouse liver microsomes assessed as stability at 5 uM by LC/MS-MS analysis
A short description of series [7]: in vitro. The note with it: human, Caco-2.
Description: Permeability across human Caco2 cells
The subject of series [8] is PBMC. Description: cells. The following applies: Homo sapiens, 96 h.
Description: Cytotoxicity against human hematological tumor PBMC assessed as viability after 96 hrs by MTS assay
The nature of series [9]: in vivo. The note with it: mouse.
Series [10] addresses Cytochrome P450 3A4 (Homo sapiens, UniProt P08684).
Description: Inhibition of human recombinant CYP3A4 in liver microsomes by mechanism based inhibition assay
Series [11] in a line: Antitumor activity against human HCT116 cells xenografted in SCID mouse assessed as decrease in […] positive cells at 50 mg/kg, sc after 24 hrs infusion schedule. The following applies: HCT-116, sc.
Series [12] is described as follows: Antitumor activity against human HCT116 cells xenografted in SCID mouse assessed as decrease in […] positive cells at 25 mg/kg/day, sc after 48 hrs infusion schedule. The note with it: HCT-116, sc.
The nature of series [13]: in vivo. The note with it: mouse, po.
Description: Oral bioavailability in mouse
A short description of series [14]: in vivo. The note with it: mouse. The source holds these as a separate data set.
Description: Volume of distribution in mouse
A short description of series [15]: Antitumor activity against human HCT116 cells xenografted in SCID mouse assessed as tumor growth at 25 mg/kg/day, sc after 48 hrs infusion schedule. The note with it: route subcutaneous.
In series [16] the target is T1, Aurora kinase C (Homo sapiens, UniProt Q9UQB9).
T1 sequence (Q9UQB9 whole entry): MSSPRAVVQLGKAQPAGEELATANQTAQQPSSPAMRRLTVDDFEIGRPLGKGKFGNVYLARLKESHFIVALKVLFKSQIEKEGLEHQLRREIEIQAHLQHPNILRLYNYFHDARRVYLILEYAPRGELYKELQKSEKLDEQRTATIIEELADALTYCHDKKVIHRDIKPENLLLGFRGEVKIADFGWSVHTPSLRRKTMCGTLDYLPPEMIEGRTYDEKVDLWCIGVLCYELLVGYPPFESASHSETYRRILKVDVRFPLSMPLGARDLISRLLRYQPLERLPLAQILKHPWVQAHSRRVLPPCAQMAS
Description: Inhibition of poly-histidine tagged full length recombinant aurora C (unknown origin) assessed as phosphorylation of NuMA-histidine substrate by scintillation counting analysis

Series [17] is described as follows: in vitro. The note with it: human, liver microsomes.
Description: Metabolic stability human liver microsomes assessed as stability at 5 uM by LC/MS-MS analysis
Series [18] deals with Angiopoietin-1 receptor (Homo sapiens, UniProt Q02763).
Description: Inhibition of TIE-2 (unknown origin)
Series [19] has as its target Focal adhesion kinase 1 (Homo sapiens, UniProt Q05397).
Description: Inhibition of FAK (unknown origin)
The target in series [20] is MAP kinase p38 (Homo sapiens, UniProt O15264+Q15759+Q16539+P53778).
Description: Inhibition of p-38 kinase (unknown origin)
Series [21] concerns the target Insulin-like growth factor 1 receptor (Homo sapiens, UniProt P08069).
Description: Inhibition of IGF1R (unknown origin)

As usually defined, the IC50 is the point on the concentration scale where inhibition reaches its midpoint. As usually defined, the inhibition in vivo is the share of the control response that was lost under treatment. As a reminder, the fraction remaining is the share of the starting amount still present when the sample was taken. High values mean greater stability, low ones a greater loss. Broadly, the Papp is the rate of passage across a membrane or cell layer, normalised by area and donor concentration. A lower Papp goes with slow passage. One may read the half-life as the time needed for the level to fall by half in the phase considered. The low end stands for rapid decline, the high end for slow decline. By Ki is commonly meant a dissociation constant, usually derived from enzyme kinetics or from competition with a known ligand. High values mean a looser hold on the target, low ones a stronger hold on the target. By bioavailability is commonly meant the share of a dose that reaches the circulation, judged against a reference dose that is usually intravenous. High values mean much systemic uptake, low ones little systemic uptake. The Vd is the apparent volume that relates the amount in the body to the concentration in plasma or blood. A high value points to extensive tissue distribution.

Aurora kinase B, sequence (Q96GD4 whole entry, the tested form may be a part): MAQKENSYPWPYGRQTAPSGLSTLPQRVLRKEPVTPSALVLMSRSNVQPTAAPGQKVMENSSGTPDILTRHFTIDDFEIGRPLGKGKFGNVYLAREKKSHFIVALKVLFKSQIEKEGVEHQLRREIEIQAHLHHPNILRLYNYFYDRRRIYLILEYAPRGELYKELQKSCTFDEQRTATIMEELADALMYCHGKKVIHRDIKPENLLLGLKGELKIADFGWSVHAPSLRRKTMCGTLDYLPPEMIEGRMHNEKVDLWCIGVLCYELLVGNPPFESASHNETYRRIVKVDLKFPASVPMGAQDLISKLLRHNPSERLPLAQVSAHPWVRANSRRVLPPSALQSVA
Insulin-like growth factor 1 receptor, sequence (P08069 31-736 limits assumed): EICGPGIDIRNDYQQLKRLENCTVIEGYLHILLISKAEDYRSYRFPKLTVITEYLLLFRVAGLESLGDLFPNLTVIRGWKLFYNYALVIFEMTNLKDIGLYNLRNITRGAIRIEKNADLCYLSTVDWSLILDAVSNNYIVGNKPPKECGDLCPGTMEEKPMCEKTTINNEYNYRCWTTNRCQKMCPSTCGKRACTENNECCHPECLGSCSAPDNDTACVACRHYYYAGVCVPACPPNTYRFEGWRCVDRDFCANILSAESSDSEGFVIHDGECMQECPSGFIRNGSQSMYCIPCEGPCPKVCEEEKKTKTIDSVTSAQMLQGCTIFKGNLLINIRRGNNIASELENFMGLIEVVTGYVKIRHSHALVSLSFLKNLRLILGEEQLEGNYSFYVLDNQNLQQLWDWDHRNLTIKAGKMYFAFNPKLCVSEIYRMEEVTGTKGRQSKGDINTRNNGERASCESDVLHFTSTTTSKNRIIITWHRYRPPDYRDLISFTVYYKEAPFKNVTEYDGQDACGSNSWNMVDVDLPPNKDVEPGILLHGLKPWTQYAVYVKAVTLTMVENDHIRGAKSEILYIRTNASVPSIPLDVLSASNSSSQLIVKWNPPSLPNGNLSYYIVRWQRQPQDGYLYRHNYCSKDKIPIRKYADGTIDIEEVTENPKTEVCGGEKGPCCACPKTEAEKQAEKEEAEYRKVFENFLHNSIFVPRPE
Insulin-like growth factor 1 receptor, sequence (P08069 741-1367 limits assumed): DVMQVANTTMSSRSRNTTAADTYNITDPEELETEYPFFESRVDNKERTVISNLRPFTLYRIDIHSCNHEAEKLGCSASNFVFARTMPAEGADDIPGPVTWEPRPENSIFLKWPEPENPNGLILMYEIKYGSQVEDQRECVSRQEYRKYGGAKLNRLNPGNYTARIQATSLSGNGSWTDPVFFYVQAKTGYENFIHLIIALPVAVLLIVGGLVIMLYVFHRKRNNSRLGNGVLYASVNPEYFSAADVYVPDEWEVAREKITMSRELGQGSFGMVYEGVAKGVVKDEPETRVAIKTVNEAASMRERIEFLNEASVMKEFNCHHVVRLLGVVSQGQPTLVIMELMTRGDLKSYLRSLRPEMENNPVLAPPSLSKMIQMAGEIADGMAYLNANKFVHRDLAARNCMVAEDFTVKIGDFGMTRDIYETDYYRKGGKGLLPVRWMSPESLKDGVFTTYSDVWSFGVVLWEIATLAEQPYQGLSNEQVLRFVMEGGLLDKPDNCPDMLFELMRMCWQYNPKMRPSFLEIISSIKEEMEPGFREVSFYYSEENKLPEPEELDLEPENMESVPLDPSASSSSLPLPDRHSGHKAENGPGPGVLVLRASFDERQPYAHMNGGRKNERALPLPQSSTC
Angiopoietin-1 receptor, sequence (Q02763 whole entry): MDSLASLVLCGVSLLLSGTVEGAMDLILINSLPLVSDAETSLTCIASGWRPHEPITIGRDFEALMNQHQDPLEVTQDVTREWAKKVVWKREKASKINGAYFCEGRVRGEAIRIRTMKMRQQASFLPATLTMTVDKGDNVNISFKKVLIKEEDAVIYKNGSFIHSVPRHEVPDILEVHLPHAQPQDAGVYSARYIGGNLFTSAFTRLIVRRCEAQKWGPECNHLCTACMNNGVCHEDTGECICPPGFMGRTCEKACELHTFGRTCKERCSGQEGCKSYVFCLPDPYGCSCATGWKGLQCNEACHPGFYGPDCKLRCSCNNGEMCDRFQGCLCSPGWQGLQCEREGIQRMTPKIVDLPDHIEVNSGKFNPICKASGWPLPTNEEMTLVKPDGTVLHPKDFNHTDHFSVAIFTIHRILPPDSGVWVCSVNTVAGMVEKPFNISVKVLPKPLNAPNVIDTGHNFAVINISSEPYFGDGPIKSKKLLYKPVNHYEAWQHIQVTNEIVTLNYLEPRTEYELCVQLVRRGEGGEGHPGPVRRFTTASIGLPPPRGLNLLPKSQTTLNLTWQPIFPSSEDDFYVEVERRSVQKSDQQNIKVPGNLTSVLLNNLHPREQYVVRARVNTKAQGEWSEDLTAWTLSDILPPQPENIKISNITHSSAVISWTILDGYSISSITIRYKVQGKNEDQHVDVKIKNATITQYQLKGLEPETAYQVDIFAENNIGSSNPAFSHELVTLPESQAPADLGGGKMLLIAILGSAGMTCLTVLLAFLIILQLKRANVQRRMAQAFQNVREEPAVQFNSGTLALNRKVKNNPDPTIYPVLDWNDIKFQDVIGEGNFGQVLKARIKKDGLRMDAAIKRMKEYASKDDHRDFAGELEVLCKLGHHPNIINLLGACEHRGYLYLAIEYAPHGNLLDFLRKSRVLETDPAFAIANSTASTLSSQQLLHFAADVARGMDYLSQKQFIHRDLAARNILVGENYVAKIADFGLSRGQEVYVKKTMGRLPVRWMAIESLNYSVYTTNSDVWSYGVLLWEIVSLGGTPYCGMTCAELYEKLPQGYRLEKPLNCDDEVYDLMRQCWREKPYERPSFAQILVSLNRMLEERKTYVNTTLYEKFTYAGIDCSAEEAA
Focal adhesion kinase 1, sequence (Q05397 whole entry): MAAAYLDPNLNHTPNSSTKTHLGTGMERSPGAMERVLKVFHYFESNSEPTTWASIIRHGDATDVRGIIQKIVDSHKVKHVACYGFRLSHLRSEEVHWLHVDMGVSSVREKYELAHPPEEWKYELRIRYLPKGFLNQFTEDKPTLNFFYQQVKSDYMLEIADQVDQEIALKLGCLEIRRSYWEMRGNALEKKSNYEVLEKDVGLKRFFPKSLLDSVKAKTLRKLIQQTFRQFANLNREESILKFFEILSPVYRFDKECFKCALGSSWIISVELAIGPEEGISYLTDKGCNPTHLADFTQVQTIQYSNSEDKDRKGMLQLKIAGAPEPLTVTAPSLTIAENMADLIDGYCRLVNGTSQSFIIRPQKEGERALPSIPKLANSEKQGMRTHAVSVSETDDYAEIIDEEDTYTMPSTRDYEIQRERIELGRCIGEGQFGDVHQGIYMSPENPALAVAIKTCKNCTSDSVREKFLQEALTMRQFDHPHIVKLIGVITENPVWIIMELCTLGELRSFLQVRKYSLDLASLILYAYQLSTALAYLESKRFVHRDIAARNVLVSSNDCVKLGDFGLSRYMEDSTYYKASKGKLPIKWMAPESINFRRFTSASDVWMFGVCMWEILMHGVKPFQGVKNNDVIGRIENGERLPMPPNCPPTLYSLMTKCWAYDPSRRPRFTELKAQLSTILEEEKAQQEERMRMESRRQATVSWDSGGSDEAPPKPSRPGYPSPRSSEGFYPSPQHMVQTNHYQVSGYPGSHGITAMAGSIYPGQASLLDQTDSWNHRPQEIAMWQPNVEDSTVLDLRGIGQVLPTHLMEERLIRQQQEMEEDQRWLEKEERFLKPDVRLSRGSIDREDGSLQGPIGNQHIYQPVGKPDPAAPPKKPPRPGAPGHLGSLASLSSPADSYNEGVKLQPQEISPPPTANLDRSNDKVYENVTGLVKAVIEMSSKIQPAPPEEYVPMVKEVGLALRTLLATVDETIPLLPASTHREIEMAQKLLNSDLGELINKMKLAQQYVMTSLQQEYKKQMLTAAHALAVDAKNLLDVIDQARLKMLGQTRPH
Cytochrome P450 3A4, sequence (P08684 whole entry, the tested form may be a part): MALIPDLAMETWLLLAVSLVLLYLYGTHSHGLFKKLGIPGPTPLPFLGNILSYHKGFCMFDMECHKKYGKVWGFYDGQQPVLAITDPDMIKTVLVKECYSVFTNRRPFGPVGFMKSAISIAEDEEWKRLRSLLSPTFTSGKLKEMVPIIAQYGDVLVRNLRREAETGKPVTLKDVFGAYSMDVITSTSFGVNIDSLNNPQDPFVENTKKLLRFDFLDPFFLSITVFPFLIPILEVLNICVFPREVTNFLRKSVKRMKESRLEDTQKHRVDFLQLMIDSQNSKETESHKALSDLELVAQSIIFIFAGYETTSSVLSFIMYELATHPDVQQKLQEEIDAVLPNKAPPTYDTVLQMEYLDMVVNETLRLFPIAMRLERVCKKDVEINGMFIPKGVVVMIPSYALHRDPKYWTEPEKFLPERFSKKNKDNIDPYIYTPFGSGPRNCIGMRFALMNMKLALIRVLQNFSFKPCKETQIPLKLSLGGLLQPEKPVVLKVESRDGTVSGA

As to `CCOC(=O)c1[nH]cc2c1NC1=C(C(=O)CCC1)[C@H]2c1cccc(Oc2nc3ccccc3[nH]2)c1`, the IC50 in series [1] was 67 nM; in series [2], 1 nM; in series [8], greater than 10000 nM; in series [16], 3 nM. Also, the Activity in [3] stood at 59%; in [15] it was 19%. Further, the concentration at 8 h in [4] is 63 µM. Besides, the inhibition in vivo at 25 mg/kg in series [5] was found to be 19%. In addition, the values for the amount remaining at 5 µM in series [6] and in [17] were 32% and 53%, respectively. Also, the Papp in [7] is 6 ×10⁻⁶ cm/s. This compound gave a half-life in series [9] of 2.4 h. In series [10], this compound gave a Ki of 990 nM. Further, the inhibition in vivo at 50 mg/kg in series [11] turned out to be 47%. Moreover, the inhibition in vivo at 25 mg/kg/day in series [12] was found to be 16%. In series [13], the bioavailability turned out to be 64%. In series [14], this compound displayed a Vd of 0.14 L/kg.
As to `O=C1CNCC2=C1C(c1ccccc1F)c1c[nH]nc1N2` (racemic), the IC50 in [18] was greater than 20000 nM; in series [1] it was greater than 10000 nM; in series [19] it was greater than 20000 nM; in series [20] it was greater than 20000 nM; in [21] it was greater than 20000 nM.
